Experimental data from US20110275518A1 (priority 2007, published 2011).
“Also recorded” adds a separate entry of the source.

What was measured:
pulse seeds = details: 0.1% to 1% aqueous coating; pea, chickpea, lentil, soybean
Excerpt: Germination on blotters was scored at 7- and 14-days. Emergence from soil was scored at 21- and 28-days.
To treat seeds, one hundred seeds were placed in a 50-mL Falcon tube and combined with the treatment solution. Seeds were mixed with the treatment for 5-min by gently rolling and inverting the Falcon tube. Coated seeds were placed in an open Petri plate for 30-min to dry. Seeds were sown 10-per pot, set in a greenhouse, and maintained under standard conditions with mercury lamp lighting supplementing daylight from 3:00 pm to 10:00 pm.
Place 100-seeds into a 50-mL Falcon tube and add 1-mL of treatment solution. Gently roll and invert the tube for 5 min to evenly coat each seed without causing damage. Remove seeds from tube by pouring carefully into an empty Petri plate. Leave exposed (lid off) and air dry seeds for 30 min.
(1) Germination: Place 50 seeds from each treatment onto 25 individual moistened blotters in large Petri plates. Incubate at room temperature for 2-weeks with or without light. Score germination at 7- and 14-days. (2) Emergence: Sow 50 seeds from each treatment into five pots (10-seeds per pot and five pots per treatment). Place in a greenhouse at 22° C. with ample air circulation. Use mercury lamps to supplement lighting (on at 3:00 pm-off at 10:00 pm) if necessary. For pre-emergent plants, water pots as needed to keep soil moist but not wet. Water emergent plants daily. […]

healthy dry bean seed = assay: Germination of healthy dry bean seed; assay type: in vivo
[1] = system: dry bean (Phaseolus vulgaris L) seeds, cultivar 'Othello'; assay: Germination of diseased dry bean seed under bacterial disease pressure (Experiment 1); assay type: in vivo
Excerpt: The precipitate is recovered by filtration and the powder is dried.
Seeds were placed on blotters in Petri plates, were soaked in an excess of water for 3 days, then drained on day 4. The 3-day period of excess water created extremely high pressure from pathogenic and saprophytic bacteria. This led to a very high bacterial load on the germinating seeds and high disease pressure due to pathogenic, saprophytic and soft-rot bacteria. This disease pressure was so extreme that the germination rates for experiments 2-5 were essentially zero due to being overwhelmed by the disease pressure.

[2] = prior art teaching; cited from earlier work

Compound	effect on germination of pulse seeds (pulse seeds)	Day to 50% germination (healthy dry bean seed; 1%) [days]	Day to 50% germination (healthy dry bean seed; […]) [days]	phytotoxicity / effect on germination of dry bean seeds ([1]; 0.1% to 1% treatments, days needed to reach 25% germination)	increase in germination compared with the negative control (sterile water) ([1]; 1% treatment, by day 10) [%]	phytotoxicity [2]
oxysilver nitrate [high valency silver]	no negative effects on germination of any pulse seed	5.0	5.0	no negative effects on germination; also recorded: no phytotoxic effect on germinating seeds	34.7	
O=[N+]([O-])[O-].[Ag+] [silver nitrate]						phytotoxic
